In patent US8772235B2, “Compounds having peptides conjugated to bone targeting moieties and methods of making and using thereof” (The Governors of the University of Alberta, priority 2009, dated 2014):

Legend:
[1] = Effect on plasma phosphate level in normal rats (SMCC series); assay type: in vivo, rat; details: 20 IU sCT/kg equivalent, subcutaneous
Procedure: (§1) Pharmacodynamic response of sCT analogue was evaluated by analyzing plasma calcium concentration in the rat model. Sprague Dawley female rats weighing 230-260 g (about 6 weeks old) were purchased from Charles River, USA and housed at the University of Alberta Animal Holding Unit. All experimental protocols were approved by the Animals Ethics Committee of the University of Alberta. The rats were divided randomly into five groups of 3 animals each and the pharmacodynamic response was assessed following subcutaneous administration of the sCT or analogue equivalent to 20 IU sCT/kg body weight. Rats were anesthetized using Isoflurane inhalation anesthesia and the 200 μl blood samples were obtained in heparinized Eppendorf microtubes before drug injection. Then 100 μl of sCT or equivalent dose in 20 mM Sodium Acetate buffer pH 5 was sub cu injected and the blood samples were collected 1, 2, 3 and 4 hrs post injection from jugular vein. Blood plasma was obtained by centrifuging the samples at 5000 rpm for 10 min and collecting the supernatant. Plasma calcium level was assayed by QuantiChrom™ Calcium Assay Kit (BioAssay Systems, CA USA) and the plasma phosphate level was assayed by QuantiChrom™ Phosphate Assay Kit (BioAssay Systems, CA USA).

[2] = Effect on plasma phosphate level in normal rats (PEG series); assay type: in vivo, rat; details: 20 IU sCT/kg equivalent, subcutaneous
Procedure: as §1, with “was” for “was sub cu”

[3] = Hydroxyapatite (HA) binding assay, bone mineral affinity; details: 10 μg sCT, 1 mg HA, 1 h, 100 mM phosphate buffer pH 7.0
Procedure: Bone targeting potential of sCT analogue was evaluated by determining the effect of sCT modification (due to chemical coupling) upon its bone mineral affinity. Specific volume of purified sCT analogue solution containing 10 μg of sCT was mixed with 1 mg Hydroxyapatite (HA) in 150 μL 100 mM phosphate buffer (pH 7.0) in microcentrifuge tubes in duplicate to give a final concentration of 66.67 μg/ml sCT. As a reference, control samples were incubated in tubes without HA (i.e., 0% of binding).
The tubes were incubated at room temperature on a shaker for 1 h, and centrifuged at 5000 g for 5 minutes to separate the HA from the supernatant. sCT concentration in the supernatant was determined using the BCA microprotein assay (Pierce, USA) as described above. HA centrifugate remaining after removal of supernatant was washed five times using 1 mL buffer each time and the last washing after centrifugation at 5000 g for 5 minutes was collected. Both the washings and the HA centrifugate were then analyzed for sCT as described above. The amount of sCT in the supernatant, washings and HA centrifugate was then inferred by measuring the absorbance at 562 nm, with a value of 100% for control samples without HA.

RAW 264.7 cells = assay: MTT cytotoxicity on osteoclast precursor RAW 264.7 cells (PEG series); assay type: cell-based, mouse; details: 100, 500 and 1000 nM sCT or equivalent, 4 hours incubation
Procedure: RAW 264.7 cells (ATCC VA, USA) were seeded on 96 well plates at an initial density of 2×10^4 cells/well and incubated in 200 μl GIBCO High Glucose 1× Dulbecco's Modified Eagle Medium (DMEM) (Invitrogen CA, USA) supplemented with 4.5 g/L D-Glucose, L-Glutamine, 110 mg/L Sodium Pyruvate, 10% heat inactivated fetal bovine serum (FBS) and 1% Penicillin-Streptomycin (10000 U/mL; Invitrogen) in a Thermo Fisher Scientific Water Jacketed CO2 incubator (37° C., 5% CO2) until the cells were 80% confluent.
After 72 hrs, media was replaced by 200 μl basic DMEM media without FBS and incubated for 30 minutes. […] After removing the supernatant and washing twice with phosphate buffer saline, purple formazan crystals formed were dissolved in 200 μl solubilization solution (in vitro toxicology assay kit, # TOX-1, Sigma Aldrich, St. Louis, USA) and the absorbance was measured at 570 nm using microplate reader. Experiment was performed for n=8 and the absorbance of wells containing cells without sCT treatment was considered as 100% viable and used to calculate the relative viability of sCT treated cells.
In all in vitro and in vivo bioactivity assay the maximum concentration used was equivalent to 100 nM sCT. However, cytoxicity was determined for the concentration up to 1000 nM sCT or equivalent. […]

[4] = Circular dichroism, secondary structure of sCT, sCT-PEG and sCT-PEG-BP; assay type: physicochemical; details: 20 mM acetate buffer pH 5.0, ~400 μg/mL sCT or equivalent
Procedure: For a more detailed analysis of the influence of structural alteration of sCT on secondary structure of sCT analogue, the circular dichroism (CD) spectrum of sCT, sCT-PEG and sCT-PEG-BP was measured in the 20 mM acetate buffer pH 5.0. CD spectra were obtained with a ConvCD spectrophotometer instrument. Spectra were acquired over a wavelength range of 190 to 260 nm. The N2 flow rate was set at 5 l/min. The sample cuvette (100 μL) was cleaned with 20 mM Sodium Acetate buffer pH 5, and the spectra of test samples, which comprised of ˜400 μg/mL of sCT or equivalent the same buffer, were recorded with the corresponding buffer serving as blanks.

[5] = first hour, vs acetate buffer controls

- sCT bound in HA [3]: did not significantly bind to HA
Substance: Salmon calcitonin [sCT, reference compound]
- percentage of plasma phosphate reduction ([1]; 4 hour post dosing): 14.69±3.71%
- percentage of plasma phosphate reduction [1, 5]: 11.91±6.24%
- percentage of plasma phosphate reduction ([1]; second hour): 11.64±13.01%
- percentage of plasma phosphate reduction ([2]; 4 hour post dosing): 15.7±3.7%
- percentage of plasma phosphate reduction [2, 5]: 22.1±6.24%
- percentage of plasma phosphate reduction ([2]; second hour): 22.7±13.01%
- cytotoxicity (absorbance of formazan solution) compared to untreated media (RAW 264.7 cells): low levels of cytotoxicity
- secondary structure by CD spectrum [4]: random coil conformation
